Data from ChEMBL document CHEMBL3856204, “Chiral 6-aryl-furo[2,3-d]pyrimidin-4-amines as EGFR inhibitors” (Eur J Med Chem, 2016).

Columns and labels:
[1] = target: MAP kinase-activated protein kinase 2 (Homo sapiens) (UniProt P49137); experiment: Inhibition of His tagged recombinant full length human MAPKAPK2 expressed in Escherichia coli at 500 nM by Z'-LYTE assay
[2] = target: Dual specificity mitogen-activated protein kinase kinase 1 (Homo sapiens) (UniProt Q02750); experiment: Inhibition of His tagged recombinant full length human MEK1 expressed in baculovirus at 500 nM by Z'-LYTE assay
[3] = target: T1, Inhibitor of nuclear factor kappa-B kinase subunit beta (Homo sapiens) (UniProt O14920); experiment: Inhibition of GST tagged recombinant full length human IKK beta expressed in baculovirus at 500 nM by Z'-LYTE assay
T1 sequence (whole entry): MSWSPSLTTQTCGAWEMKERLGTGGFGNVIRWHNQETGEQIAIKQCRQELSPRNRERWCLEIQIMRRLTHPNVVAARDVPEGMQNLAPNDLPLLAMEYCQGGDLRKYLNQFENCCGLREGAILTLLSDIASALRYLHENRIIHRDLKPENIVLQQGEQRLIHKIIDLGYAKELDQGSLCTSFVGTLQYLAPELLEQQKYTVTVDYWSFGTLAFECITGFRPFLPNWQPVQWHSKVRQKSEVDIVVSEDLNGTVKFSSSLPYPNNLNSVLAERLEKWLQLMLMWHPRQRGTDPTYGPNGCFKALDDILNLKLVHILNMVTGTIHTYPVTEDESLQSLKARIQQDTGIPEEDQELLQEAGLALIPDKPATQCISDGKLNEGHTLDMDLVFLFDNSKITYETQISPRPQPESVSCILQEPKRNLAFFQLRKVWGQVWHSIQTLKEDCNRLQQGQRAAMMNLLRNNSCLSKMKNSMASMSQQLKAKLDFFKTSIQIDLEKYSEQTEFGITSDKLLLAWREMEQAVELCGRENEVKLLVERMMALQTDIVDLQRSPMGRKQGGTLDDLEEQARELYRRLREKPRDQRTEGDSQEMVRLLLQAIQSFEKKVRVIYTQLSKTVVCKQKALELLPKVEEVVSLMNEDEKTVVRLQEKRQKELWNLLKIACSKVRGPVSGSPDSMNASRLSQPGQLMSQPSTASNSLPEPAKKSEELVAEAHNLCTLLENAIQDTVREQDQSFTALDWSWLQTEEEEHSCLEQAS

[4] = target: Serine/threonine-protein kinase PLK1 (Homo sapiens) (UniProt P53350); experiment: Inhibition of His tagged recombinant full length human PLK1 expressed in baculovirus at 500 nM by Z'-LYTE assay
[5] = target: Fibroblast growth factor receptor 1 (Homo sapiens) (UniProt P11362); experiment: Inhibition of His tagged recombinant human FGFR1 cytoplasmic domain (308 to 731 residues) expressed in baculovirus at 500 nM by Z'-LYTE assay
[6] = target: Platelet-derived growth factor receptor beta (Homo sapiens) (UniProt P09619); experiment: Inhibition of His tagged recombinant human PDGFRB cytoplasmic domain (558 to 1106 residues) expressed in baculovirus at 500 nM by Z'-LYTE assay
[7] = target: Focal adhesion kinase 1 (Homo sapiens) (UniProt Q05397); experiment: Inhibition of GST tagged recombinant full length human PTK2 expressed in baculovirus at 500 nM by Z'-LYTE assay
[8] = target: T2, Serine/threonine-protein kinase Nek1 (Homo sapiens) (UniProt Q96PY6); experiment: Inhibition of GST tagged recombinant human NEK1 catalytic domain (1 to 505 residues) expressed in baculovirus at 500 nM by Z'-LYTE assay
T2 sequence (whole entry): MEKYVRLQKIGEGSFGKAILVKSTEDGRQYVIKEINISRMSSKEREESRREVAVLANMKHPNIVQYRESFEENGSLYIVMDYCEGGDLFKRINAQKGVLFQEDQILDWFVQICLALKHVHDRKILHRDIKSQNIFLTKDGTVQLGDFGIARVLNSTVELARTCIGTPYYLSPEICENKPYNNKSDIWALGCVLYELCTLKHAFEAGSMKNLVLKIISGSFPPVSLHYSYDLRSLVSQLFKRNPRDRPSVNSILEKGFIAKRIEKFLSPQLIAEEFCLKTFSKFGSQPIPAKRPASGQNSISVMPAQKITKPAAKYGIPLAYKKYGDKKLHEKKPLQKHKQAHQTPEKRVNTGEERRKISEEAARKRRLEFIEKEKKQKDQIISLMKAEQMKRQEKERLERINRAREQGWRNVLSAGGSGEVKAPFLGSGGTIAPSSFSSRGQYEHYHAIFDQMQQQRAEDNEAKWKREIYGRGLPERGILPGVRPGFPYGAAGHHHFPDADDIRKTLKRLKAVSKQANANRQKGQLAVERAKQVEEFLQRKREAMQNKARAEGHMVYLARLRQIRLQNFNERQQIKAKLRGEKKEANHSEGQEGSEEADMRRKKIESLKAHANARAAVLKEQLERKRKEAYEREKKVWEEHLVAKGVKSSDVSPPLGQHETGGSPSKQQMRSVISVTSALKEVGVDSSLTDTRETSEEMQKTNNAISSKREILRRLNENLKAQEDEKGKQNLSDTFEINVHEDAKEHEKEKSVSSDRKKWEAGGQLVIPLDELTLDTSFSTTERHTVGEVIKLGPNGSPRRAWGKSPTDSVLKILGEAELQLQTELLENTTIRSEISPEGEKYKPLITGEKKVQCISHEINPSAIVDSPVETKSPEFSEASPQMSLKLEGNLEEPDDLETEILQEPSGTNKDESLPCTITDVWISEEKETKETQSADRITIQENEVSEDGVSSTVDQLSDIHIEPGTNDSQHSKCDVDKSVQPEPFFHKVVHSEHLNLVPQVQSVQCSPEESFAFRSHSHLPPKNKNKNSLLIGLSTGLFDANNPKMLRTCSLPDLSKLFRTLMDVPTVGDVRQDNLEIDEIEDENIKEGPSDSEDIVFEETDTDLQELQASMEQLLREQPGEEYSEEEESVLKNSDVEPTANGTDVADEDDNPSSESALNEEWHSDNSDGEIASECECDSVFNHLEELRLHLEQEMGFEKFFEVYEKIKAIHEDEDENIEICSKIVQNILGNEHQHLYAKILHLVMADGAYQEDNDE

Chain of Dual specificity mitogen-activated protein kinase kinase 1 (Homo sapiens) (Q02750 whole entry): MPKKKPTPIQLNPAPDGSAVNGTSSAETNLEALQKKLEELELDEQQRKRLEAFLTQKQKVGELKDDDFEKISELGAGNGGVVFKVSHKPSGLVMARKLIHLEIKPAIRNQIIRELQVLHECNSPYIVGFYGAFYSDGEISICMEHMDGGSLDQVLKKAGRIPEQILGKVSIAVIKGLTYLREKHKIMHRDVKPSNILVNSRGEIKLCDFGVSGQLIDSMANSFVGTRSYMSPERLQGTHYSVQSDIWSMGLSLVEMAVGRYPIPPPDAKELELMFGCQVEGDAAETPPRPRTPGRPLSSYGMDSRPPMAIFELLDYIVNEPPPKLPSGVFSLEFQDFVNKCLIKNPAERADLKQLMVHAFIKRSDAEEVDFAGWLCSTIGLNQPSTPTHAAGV
Chain of Platelet-derived growth factor receptor beta (Homo sapiens) (P09619 whole entry, the tested form may be a part): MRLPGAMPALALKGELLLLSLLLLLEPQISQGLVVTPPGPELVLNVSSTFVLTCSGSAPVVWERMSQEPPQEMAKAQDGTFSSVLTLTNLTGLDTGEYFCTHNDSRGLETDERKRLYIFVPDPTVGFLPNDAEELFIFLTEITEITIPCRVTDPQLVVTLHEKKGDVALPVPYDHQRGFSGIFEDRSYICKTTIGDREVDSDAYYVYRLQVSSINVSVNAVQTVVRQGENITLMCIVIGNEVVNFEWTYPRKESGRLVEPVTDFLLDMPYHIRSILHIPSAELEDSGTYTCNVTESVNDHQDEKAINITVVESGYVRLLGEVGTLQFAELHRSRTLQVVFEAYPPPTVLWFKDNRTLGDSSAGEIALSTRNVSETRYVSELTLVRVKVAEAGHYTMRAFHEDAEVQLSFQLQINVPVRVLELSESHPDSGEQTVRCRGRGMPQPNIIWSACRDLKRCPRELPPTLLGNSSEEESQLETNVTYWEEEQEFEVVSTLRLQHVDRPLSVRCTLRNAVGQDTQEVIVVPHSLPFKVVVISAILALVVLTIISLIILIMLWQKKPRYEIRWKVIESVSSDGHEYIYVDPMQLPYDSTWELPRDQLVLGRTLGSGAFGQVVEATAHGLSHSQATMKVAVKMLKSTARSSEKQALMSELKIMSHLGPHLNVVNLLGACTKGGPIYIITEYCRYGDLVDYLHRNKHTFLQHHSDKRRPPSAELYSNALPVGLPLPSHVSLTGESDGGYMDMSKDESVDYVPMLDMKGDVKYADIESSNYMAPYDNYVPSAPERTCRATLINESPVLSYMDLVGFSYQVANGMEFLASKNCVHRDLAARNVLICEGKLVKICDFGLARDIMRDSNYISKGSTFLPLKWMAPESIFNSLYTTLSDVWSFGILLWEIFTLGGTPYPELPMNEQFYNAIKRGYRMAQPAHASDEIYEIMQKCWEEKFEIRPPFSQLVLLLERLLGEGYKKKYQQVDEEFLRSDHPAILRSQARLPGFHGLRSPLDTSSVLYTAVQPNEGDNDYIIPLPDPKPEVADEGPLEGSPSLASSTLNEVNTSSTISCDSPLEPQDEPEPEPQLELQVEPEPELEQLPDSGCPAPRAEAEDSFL
Chain of MAP kinase-activated protein kinase 2 (Homo sapiens) (P49137 whole entry, looked up): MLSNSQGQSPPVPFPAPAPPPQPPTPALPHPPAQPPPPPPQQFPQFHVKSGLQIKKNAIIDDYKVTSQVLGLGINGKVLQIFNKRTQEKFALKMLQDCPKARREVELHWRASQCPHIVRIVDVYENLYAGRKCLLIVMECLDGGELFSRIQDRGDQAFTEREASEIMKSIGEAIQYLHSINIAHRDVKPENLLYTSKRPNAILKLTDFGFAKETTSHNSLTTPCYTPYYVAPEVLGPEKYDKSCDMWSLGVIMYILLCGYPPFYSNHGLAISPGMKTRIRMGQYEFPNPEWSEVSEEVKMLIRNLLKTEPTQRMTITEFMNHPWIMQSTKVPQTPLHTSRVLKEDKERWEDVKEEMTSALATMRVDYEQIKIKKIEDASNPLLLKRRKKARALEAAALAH
Chain of Fibroblast growth factor receptor 1 (Homo sapiens) (P11362 22-822 limits assumed): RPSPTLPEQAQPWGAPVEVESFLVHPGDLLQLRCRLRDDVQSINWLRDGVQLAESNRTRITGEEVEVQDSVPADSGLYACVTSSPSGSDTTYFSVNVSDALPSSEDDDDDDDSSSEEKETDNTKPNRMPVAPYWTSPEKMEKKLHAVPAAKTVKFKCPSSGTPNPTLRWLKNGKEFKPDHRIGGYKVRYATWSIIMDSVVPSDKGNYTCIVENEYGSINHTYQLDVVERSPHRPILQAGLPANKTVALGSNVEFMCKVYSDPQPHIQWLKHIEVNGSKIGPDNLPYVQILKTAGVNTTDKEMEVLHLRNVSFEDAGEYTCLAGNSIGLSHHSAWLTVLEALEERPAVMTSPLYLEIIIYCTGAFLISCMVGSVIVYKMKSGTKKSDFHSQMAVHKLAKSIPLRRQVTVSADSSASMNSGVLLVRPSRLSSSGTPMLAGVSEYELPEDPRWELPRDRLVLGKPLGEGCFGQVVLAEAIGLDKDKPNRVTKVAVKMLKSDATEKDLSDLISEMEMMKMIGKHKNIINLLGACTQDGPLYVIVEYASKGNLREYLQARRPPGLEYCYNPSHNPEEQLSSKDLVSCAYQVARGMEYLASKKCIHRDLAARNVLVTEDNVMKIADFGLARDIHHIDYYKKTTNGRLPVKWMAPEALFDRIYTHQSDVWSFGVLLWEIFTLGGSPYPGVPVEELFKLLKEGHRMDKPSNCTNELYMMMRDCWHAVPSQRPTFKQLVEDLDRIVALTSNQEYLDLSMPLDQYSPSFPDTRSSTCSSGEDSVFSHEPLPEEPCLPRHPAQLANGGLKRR
Chain of Serine/threonine-protein kinase PLK1 (Homo sapiens) (P53350 whole entry, the tested form may be a part): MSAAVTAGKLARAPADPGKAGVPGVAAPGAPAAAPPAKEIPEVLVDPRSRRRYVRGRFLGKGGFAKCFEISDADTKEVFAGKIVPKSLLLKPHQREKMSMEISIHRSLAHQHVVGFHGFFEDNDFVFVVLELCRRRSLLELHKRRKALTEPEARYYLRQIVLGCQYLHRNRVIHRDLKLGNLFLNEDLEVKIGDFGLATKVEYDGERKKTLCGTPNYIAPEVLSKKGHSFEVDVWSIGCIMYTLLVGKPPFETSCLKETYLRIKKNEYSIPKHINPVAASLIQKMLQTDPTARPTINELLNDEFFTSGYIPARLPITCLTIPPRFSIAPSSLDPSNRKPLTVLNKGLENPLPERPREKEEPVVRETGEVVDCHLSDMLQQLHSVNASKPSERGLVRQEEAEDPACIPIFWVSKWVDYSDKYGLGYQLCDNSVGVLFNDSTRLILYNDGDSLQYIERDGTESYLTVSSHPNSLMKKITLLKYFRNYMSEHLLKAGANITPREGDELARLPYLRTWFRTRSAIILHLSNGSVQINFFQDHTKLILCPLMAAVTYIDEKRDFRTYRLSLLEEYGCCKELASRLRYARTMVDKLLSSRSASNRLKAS
Chain of Focal adhesion kinase 1 (Homo sapiens) (Q05397 2-1052 limits assumed): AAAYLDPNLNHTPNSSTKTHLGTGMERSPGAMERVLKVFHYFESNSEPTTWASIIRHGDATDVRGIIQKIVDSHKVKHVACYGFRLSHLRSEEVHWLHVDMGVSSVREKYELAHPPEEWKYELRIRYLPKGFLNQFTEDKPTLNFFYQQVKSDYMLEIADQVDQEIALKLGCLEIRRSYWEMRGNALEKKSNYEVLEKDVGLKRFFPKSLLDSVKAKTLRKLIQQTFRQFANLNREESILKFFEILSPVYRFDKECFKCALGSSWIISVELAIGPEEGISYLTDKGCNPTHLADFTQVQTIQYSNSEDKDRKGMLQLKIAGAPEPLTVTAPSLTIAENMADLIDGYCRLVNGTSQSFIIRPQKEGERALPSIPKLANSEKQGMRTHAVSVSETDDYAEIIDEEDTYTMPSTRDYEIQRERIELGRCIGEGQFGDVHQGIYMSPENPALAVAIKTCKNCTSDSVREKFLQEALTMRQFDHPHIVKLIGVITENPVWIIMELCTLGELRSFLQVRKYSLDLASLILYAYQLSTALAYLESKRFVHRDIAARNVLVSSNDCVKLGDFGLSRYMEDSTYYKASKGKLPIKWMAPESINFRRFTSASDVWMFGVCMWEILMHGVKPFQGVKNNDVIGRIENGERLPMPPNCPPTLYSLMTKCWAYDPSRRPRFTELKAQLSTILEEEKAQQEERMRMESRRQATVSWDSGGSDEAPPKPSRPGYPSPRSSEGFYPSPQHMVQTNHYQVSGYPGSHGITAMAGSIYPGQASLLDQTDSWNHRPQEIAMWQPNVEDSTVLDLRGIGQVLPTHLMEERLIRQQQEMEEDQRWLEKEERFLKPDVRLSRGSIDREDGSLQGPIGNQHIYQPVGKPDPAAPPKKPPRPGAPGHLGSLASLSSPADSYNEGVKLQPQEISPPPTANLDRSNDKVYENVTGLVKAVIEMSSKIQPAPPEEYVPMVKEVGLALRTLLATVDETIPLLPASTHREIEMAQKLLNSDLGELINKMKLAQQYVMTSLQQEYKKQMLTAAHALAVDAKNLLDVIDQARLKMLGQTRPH

inhibition [1]	inhibition [2]	inhibition [3]	inhibition [4]	inhibition [5]	inhibition [6]	inhibition [7]	inhibition [8]	Structure (SMILES)
4%	10%	3%	-5%	6%	5%	16%	-1%	C[C@@H](Nc1ncnc2oc(-c3ccc(NCCN4CCCCC4)cc3)cc12)c1ccccc1
-1%	7%	-5%	-9%	-4%	-5%	-3%	-8%	C#Cc1cccc(Nc2ncnc3cc(OCCOC)c(OCCOC)cc23)c1
3%	10%	2%	0%	6%	10%	7%	3%	C[C@@H](Nc1ncnc2oc(-c3ccc(NCCN(C)C)cc3)cc12)c1ccccc1
